The values below come from ChEMBL document CHEMBL5226309, “Synthetic RNA Modulators in Drug Discovery” (J Med Chem, 2021).

Structures are written as SMILES. Where only a bound is given, the exact number is not on record here.

Assay [1] concerns Human immunodeficiency virus 1. The assay can be described thus: Antiviral activity against HIV-1. In kind it is functional, organism-based.
The nature of assay [2]: Binding affinity to HIV-1 mRNA assessed as dissociation constant. On the set-up: species or system Human immunodeficiency virus 1.
For assay [3], the system named is U-251. The assay can be described thus: Induction of apoptosis in human U-251 cells at 100 uM. The class given is functional.
Assay [4] deals with MCF7. The assay can be described thus: Induction of apoptosis in human MCF7 cells at 100 uM. In kind it is functional.
In assay [5] the test system is Escherichia coli. The assay can be described thus: In vivo antibacterial activity against Escherichia coli MB5746 infected in DBA/2J mouse assessed as log 10 reduction in CFU in spleen at 60 mg/kg, sc administered every 3 hrs for 24 hrs (reference value: 9.53 log10 CFU). The class given is functional.
Assay [6] relates to Escherichia coli. Put plainly: In vivo antibacterial activity against Escherichia coli MB5746 infected in DBA/2J mouse assessed as log 10 reduction in CFU in spleen at 120 mg/kg, sc administered every 3 hrs for 24 hrs (reference value: 9.53 log10 CFU). The class given is functional.
Assay [7] relates to Escherichia coli. The assay can be described thus: Antibacterial activity against Escherichia coli MB5746. In kind it is functional, organism-based.
Assay [8] in a line: Binding affinity to Precursor microRNA-515 (unknown origin) assessed as dissociation constant.
Assay [9] has as its system Human immunodeficiency virus 1. Put plainly: Antiviral activity against HIV-1 infected in human T cell line assessed as inhibition of DNA replication. In kind it is functional, organism-based. The conditions noted are these: Human immunodeficiency virus 1, T-cell.
The test system of assay [10] is HeLa. The assay can be described thus: Cytotoxicity against human HeLa cells. The class given is functional.
Assay [11] is described as follows: Binding affinity to DNA hairpin (unknown origin) assessed as dissociation constant.
A short description of assay [12]: Inhibition of Precursor microRNA-96 (unknown origin) relative to control. The conditions noted are these: concentration not given here.
Assay [13] is described as follows: Binding affinity to Precursor microRNA-96 (unknown origin) assessed as dissociation constant.
A short description of assay [14]: Binding affinity to miR-18a (unknown orgin) assessed as dissociation constant.
Assay [15] in a line: Inhibition of miR-18a (unknown orgin) production.
In assay [16] the target is T1, Muscleblind-like protein 1 (Homo sapiens, UniProt Q9NR56).
T1 sequence (Q9NR56 whole entry): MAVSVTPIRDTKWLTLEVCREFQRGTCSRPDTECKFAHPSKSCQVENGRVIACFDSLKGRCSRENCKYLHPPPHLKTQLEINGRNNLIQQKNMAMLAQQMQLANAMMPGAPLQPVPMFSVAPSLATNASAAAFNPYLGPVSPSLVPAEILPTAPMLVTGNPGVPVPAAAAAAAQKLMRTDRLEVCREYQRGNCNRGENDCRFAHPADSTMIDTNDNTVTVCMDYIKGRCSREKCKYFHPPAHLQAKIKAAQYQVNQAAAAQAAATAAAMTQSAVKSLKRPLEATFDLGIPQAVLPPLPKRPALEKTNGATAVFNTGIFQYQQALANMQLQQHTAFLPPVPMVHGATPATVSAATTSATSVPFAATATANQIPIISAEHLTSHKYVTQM
The assay can be described thus: Binding affinity to MBNL1 (unknown origin) assessed as dissociation constant.

Assay [17] is described as follows: Binding affinity to r(CCUG)12 (unknown origin) assessed as dissociation constant.
Assay [18] is described as follows: Inhibition of r(CCUG)12-MBNL1 (unknown origin) by gel electrophoretic mobility shift assay. Set-up: species or system Homo sapiens. Background: A gel shift assay detects complexes by their altered migration in electrophoresis.
For assay [19], the target named is T2, Microtubule-associated protein tau (Homo sapiens, UniProt P10636). The assay can be described thus: Binding affinity to tau (unknown origin).
T2 sequence (P10636 whole entry): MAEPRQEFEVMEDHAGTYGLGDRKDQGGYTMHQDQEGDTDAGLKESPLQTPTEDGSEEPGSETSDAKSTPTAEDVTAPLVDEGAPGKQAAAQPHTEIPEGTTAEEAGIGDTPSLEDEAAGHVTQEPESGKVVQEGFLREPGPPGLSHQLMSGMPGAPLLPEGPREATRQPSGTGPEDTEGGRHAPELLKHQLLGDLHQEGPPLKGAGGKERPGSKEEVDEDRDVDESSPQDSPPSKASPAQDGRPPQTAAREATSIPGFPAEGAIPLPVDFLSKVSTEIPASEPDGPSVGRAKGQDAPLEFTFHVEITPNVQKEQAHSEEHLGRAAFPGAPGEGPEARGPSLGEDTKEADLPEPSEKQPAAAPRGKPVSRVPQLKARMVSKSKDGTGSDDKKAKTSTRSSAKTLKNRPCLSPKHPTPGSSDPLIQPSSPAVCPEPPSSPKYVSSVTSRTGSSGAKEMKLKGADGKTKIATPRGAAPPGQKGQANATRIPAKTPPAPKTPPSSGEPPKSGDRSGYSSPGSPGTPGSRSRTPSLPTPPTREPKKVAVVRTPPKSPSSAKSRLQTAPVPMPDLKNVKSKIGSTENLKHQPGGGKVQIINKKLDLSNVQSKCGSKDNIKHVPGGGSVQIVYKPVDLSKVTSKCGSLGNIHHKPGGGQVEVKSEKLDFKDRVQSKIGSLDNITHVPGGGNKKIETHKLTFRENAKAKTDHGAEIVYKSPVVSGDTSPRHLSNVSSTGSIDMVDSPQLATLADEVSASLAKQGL
The target in assay [20] is T2, Microtubule-associated protein tau. The assay can be described thus: Inhibition of tau (unknown origin).
Assay [21] shares this target. The assay can be described thus: Inhibition of tau in human LA-N-5 cells assessed as reduction in 4R/3R ratio. The class given is cell-based. The conditions noted are these: concentration not given here.
The target of assay [22] is Microtubule-associated protein tau (Rattus norvegicus) (UniProt P19332). Put plainly: Inhibition of tau in rat Primary cortical neuron cell assessed as reduction in 4R/3R ratio. In kind it is cell-based. The conditions noted are these: concentration not given here.
Microtubule-associated protein tau (Rattus norvegicus), sequence (P19332 whole entry): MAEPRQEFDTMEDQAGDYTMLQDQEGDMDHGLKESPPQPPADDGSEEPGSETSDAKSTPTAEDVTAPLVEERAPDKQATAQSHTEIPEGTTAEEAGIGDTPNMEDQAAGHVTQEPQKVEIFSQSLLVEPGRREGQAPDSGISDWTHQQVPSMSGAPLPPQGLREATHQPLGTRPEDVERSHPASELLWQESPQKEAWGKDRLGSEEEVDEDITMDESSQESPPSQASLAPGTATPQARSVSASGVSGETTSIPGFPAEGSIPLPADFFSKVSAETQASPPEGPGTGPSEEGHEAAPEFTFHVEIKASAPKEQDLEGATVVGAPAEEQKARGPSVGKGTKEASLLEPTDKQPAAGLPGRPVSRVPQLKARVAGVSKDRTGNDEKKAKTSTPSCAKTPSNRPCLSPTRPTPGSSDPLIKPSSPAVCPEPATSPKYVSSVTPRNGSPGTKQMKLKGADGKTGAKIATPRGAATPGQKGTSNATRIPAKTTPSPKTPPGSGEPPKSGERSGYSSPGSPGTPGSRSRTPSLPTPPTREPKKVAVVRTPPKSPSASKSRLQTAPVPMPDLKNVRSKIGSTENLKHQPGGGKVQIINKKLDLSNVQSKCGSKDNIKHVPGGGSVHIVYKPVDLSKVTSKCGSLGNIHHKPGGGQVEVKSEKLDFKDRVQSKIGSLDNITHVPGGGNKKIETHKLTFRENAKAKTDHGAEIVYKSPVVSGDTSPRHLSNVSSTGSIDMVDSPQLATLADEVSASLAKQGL
Assay [23] in a line: Binding affinity to Precursor microRNA-210 (unknown origin) assessed as dissociation constant.
Assay [24] has as its system MDA-MB-231. Put plainly: Inhibition of Precursor microRNA-210 in human MDA-MB-231 cells at 200 nM relative to control. The class given is cell-based.
Assay [25] can be described thus: Effect on tau protein expression in human SH-SY5Y cells. In kind it is functional, cell-based.
Assay [26] can be described thus: Binding affinity to telomeric RNA (unknown origin) assessed as dissociation constant.
Assay [27] is described as follows: Downregulation of alpha-Synuclein level in human SH-SY5Y cells at 1 uM relative to control. The class given is functional.

By IC50 is commonly meant the concentration that gives 50% inhibition. The Kd is the concentration at which binding is half-saturated. In the case of `CC(=O)Nc1nc(CC(=O)c2cccc(NC(=O)[C@@H](N)CCCCNC(=N)N)c2)cs1`, it took 0.41 µM to reach half-maximal inhibition in assay [1] (IC50). In assay [2], the Kd worked out at 0.11 µM.
As to `NC(=O)c1ncn2c(=O)n(NC(=O)c3nc4c(N)cccc4[nH]3)nnc12`, the Activity in [3] and in assay [4] was 30% throughout.
Take `CNc1ncc(CN2CCCC(c3nc(O)cc(-c4cccs4)n3)C2)cn1` (configuration not stated): the results for the Activity in assay [5] and in assay [6] were 7.76 log10CFU/g and 6.24 log10CFU/g, respectively. In assay [7], this molecule had an IC50 of 0.3 µM.
For the molecule `CCCN(CC(=O)N(CCC)CC(=O)N(CCC)CC(=O)N(CCC)CC(=O)N(CC(N)=O)Cc1cn(CCCNC(=O)CCCOc2c(C(C)(C)C)cc(-c3nc4ccc(-c5ccc(N6CCN(C)CC6)cc5)cc4[nH]3)cc2C(C)(C)C)nn1)C(=O)CNCc1cn(CCCNC(=O)CCCOc2c(C(C)(C)C)cc(-c3nc4ccc(-c5ccc(N6CCN(C)CC6)cc5)cc4[nH]3)cc2C(C)(C)C)nn1`, the Kd in assay [8] was found to be 0.06 µM.
For the molecule `O=C1c2c(O)ccc(O)c2C(=O)c2c(NCCNCCO)ccc(NCCNCCO)c21` [MITOXANTRONE], the IC50 in [9] stood at 23.1 µM. This molecule had an Activity in [10] of 1 µM.
A word on the inhibition: it is the relative decrease from the control value, in per cent. For the molecule `CCCN(CC(=O)N(CCC)CC(=O)N(CC(N)=O)Cc1cn(CCCNC(=O)CCCOc2c(C(C)(C)C)cc(-c3nc4cc(N5CCN(C)CC5)ccc4[nH]3)cc2C(C)(C)C)nn1)C(=O)CCCOc1cccc(-c2nc3ccc(-c4nc5ccc(N6CCN(C)CC6)cc5[nH]4)cc3[nH]2)c1`, the Kd in [11] was > 50 µM; in assay [13], 0.085 µM. Further, in assay [12], the inhibition came out at 50%.
Regarding `CN1CCN(c2ccc(-c3ccc4nc(-c5cc(C(C)(C)C)c(OCCCC(=O)NCCCN=[N+]=[N-])c(C(C)(C)C)c5)[nH]c4c3)cc2)CC1`, in [14], the Kd came out at 32 µM. In assay [15], the concentration for half-maximal inhibition (IC50) came to 10 µM.
With `N=C(NCCCCNc1nc(N)nc(N)n1)c1ccc(C(=N)NCCCCNc2nc(N)nc(N)n2)cc1`, the Kd in assay [16] was > 200 µM; in assay [17] it was 8 µM. Besides, the IC50 in [18] is 115 µM.
Molecule `COc1ccc2[nH]c3c(c2c1)N=CN(CCCN(C)C1CCCCC1)C3` had a Kd in assay [19] of 4.9 µM. Moreover, in assay [20], the IC50 was 2.1 µM. For the same molecule, the inhibition in assay [21] came out at 40%; in assay [22] it was 50%.
As for `CN1CCN(c2ccc3nc(-c4ccc(OCCCC(=O)NCCCOCC(O)COP(=O)(O)O[C@@H]5[C@H](O)[C@@H](COP(=O)(O)O[C@@H]6[C@H](O)[C@@H](COP(=O)(O)O[C@@H]7[C@H](O)[C@@H](COP(=O)(O)O[C@@H]8[C@H](O)[C@@H](COP(=O)(O)O)O[C@H]8n8cnc9c(N)ncnc98)O[C@H]7n7cnc8c(N)ncnc87)O[C@H]6n6cnc7c(N)ncnc76)O[C@H]5n5cnc6c(N)ncnc65)cc4)[nH]c3c2)CC1` (some centres not stated), the Kd in assay [23] is 0.34 µM. This molecule also displayed an inhibition in assay [24] of 50%.
One may read the EC50 as the concentration giving half of the maximal effect. High values mean a less potent agent, low ones a more potent agent. `N=C(N)NC[C@H]1O[C@H](O[C@@H]2[C@@H](OCCSSCCNCCNc3ccc(NCCNCCO)c4c3C(=O)c3ccccc3C4=O)[C@H](O)[C@@H](NC(=N)N)C[C@H]2NC(=N)N)[C@H](NC(=N)N)[C@@H](O)[C@@H]1O` displayed an EC50 in [25] of 0.0572 µM.
As to `O=c1c2cc(-c3ccco3)sc2nc2n1Cc1nc3sc(-c4ccco4)cc3c(=O)n1C2`, the Kd in [26] is 5.9 µM.
For `N=C(N)c1ccc(Nc2ccc(-c3cc4ccc(C(=N)N)cc4[nH]3)cc2)cc1`, the Activity in [27] was found to be 67%.
